Experimental data published in patent US8361971B2, “Tablet formulation of ezatiostat” (Telik, Inc., priority 2010, dated 2013).

Assays:
Format in all cases: physicochemical
[1] = Description (appearance) of tablets on storage
Experimental: (§1) Tablets of ansolvate form D, were packaged with and without desiccant (Sorb-It Cannister, 1 gram). Fifty tablets were packaged in a round, white 1500 mL bottle with a screw cap over an induction seal. Impurities were assayed by HPLC. When stored at 25° C./60% RH with desiccant for 3 months, no increase in total impurities was observed. When stored at 40° C./75% RH with desiccant for 3 months, total impurities increased only by 0.3%. When stored at 40° C./75% RH without desiccant for 3 months, total impurities still increased by 1.1%. As tabulated below, the presence of desiccant appears to further increase the stability of the ansolvate form D. Even though the dissolution rate of tablets containing polymorph D from one batch was below specification (<70%) at an initial test as well as after 3 months at 25° C./60% RH with desiccant, the subsequent batches met the required specification.

[2] = X-ray diffraction, polymorphic form in tablets; settings: hydrochloride; for X-ray Diffraction: tablets
Experimental: X-ray powder diffraction (XRPD) analyses were performed on a Shimadzu XRD-6000 X-ray powder diffractometer using Cu Kα radiation from a long fine focus X-ray tube, operated at 40 kV, 40 mA. The divergence and scattering slits were set at 1° and the receiving slit was set at 0.15 mm. Diffracted radiation was detected by a NaI scintillation detector. A θ-2θ continuous scan at 3°/min (0.4 sec/0.02° step) from 2.5°-40° 2θ was used. A silicon standard was analyzed to check alignment of the instrument. Data were collected and analyzed using XRD-6000 v.4.1 software.
Stress experiments: solids were stressed under different temperature and/or relative humidity (RH) environments for a measured time period. Specific RH values were achieved by placing the sample inside sealed chambers containing saturated salt solutions. Samples were analyzed by XRPD immediately after removal from the stress environment.
(§2) As described above, form E converts to form B simply during tableting.
as §1

[3] = Assay and impurities by HPLC of tablets on storage; parameters: key to Individual Impurities RRT = 0.74 / Individual Impurities RRT = 0.83 / TLK 236 RRT = 0.88 / Individual Impurities RRT = 0.94 / Individual Impurities RRT = 0.96 / Total impurities / Individual Impurities RRT = 0.80 / Individual Impurities RRT = 0.81 / Individual Impurities RRT = 0.86 / Individual Impurities RRT = 0.99: impurity content in %
Source text: As used herein, “impurity” refers to one or more of: TLK 236, another polymorphic form of ezatiostat hydrochloride including without limitation form A, B, C, E, or F, and any other compound other than ezatiostat hydrochloride ansolvate, which may be identified by HPLC. TLK 236 is a monoester derived from the partial hydrolysis of ezatiostat where the phenyl glycine moiety remains esterified.
as §2, §1

[4] = Tablet dissolution (Q at 45 min); settings: tablets, hydrochloride
Source text: Without being bound by theory, a higher dissolution rate relates to a higher amount of the active agent in the gastric fluid, which in turn relates to higher bioavailability of the active agent. A high bioavailability is desired, for example and without limitation, for reducing inter patient variability of drug exposure for a orally administered agent such as ezatiostat hydrochloride. […] The aqueous solubility can be measured in a variety of aqueous solvents, including without limitation, water, 0.9% aqueous NaCl, 5% dextrose for injection, phosphate buffered saline, and generally aqueous solutions having a pH of less than about 5. Such solvents may include suitable buffers and other salts. […]
as §1

[5] = Water content of tablets on storage; settings: hydrochloride
Experimental: Karl Fischer analyses for water determination were performed on a Mettler Toledo DL39 Karl Fischer titrator. About 10-15 mg of sample was placed in the KF titration vessel containing approximately 100 mL of Hydranal®—Coulomat AD reagent and mixed for 60 seconds to ensure dissolution. The dissolved sample was then titrated by means of a generator electrode which produces iodine by electrochemical oxidation. […]
as §1

[6] = Assay and impurities by HPLC of tablets on storage; parameters: key to Individual Impurities RRT = 0.74 / TLK 236 RRT = 0.88 / Individual Impurities RRT = 0.96 / Total impurities: impurity content in %; settings: 6 Month at 40° C./75% RH without desiccant, hydrochloride
[7] = 3 Month at 40° C./75% RH without desiccant
[8] = 6 Month at 40° C./75% RH without desiccant, hydrochloride
[9] = 6 Month at 40° C./75% RH without desiccant
[10] = 3 Month at 40° C./75% RH without desiccant, hydrochloride

For `CCOC(=O)[C@@H](N)CCC(=O)N[C@@H](CSCc1ccccc1)C(=O)N[C@@H](C(=O)OCC)c1ccccc1.Cl` [Polymorph Form E, ezatiostat hydrochloride], the Description [1, 7] was “Off-white”, the Description [1, 8] was “Brown round” and the Description ([1]; Initial) was “White round”. The “polymorphic conversion on storage” value ([2]; 40° C. and 75% RH without a desiccant, form D 6 months, form E 3 months, listed as solvate form E) was “transforms into a mixture of form B and the ansolvate form D within 3 months”, the “polymorphic conversion during tablet manufacture” value ([2]; during tablet manufacture, listed as solvate form E) was “transforms almost entirely to form B crystals merely during tablet manufacture” and the “X-ray Diffraction” value [2, 7] was “Polymorph B”. The “X-ray Diffraction” value [2, 9] was “Polymorph B”, the “X-ray Diffraction” value ([2]; Initial) was “Polymorph B” and the “Individual Impurities RRT = 0.59/0.62” value [3, 7] was 0.07. The “Individual Impurities RRT = 0.86” value [3, 7] was 0.06, the “Assay (HPLC)” value [3, 10] was 90.3 % Label Claim and the “Individual Impurities RRT = 0.74” value [3, 10] was 0.42. For the same compound, the “Individual Impurities RRT = 0.80” value [3, 10] was 0.16, the “Individual Impurities RRT = 0.81” value [3, 10] was 0.14 and the “Individual Impurities RRT = 0.83” value [3, 10] was 0.31. The “Individual Impurities RRT = 0.94” value [3, 10] was 0.08, the “Individual Impurities RRT = 0.96” value [3, 10] was 0.19 and the “Individual Impurities RRT = 0.99” value [3, 10] was 0.20. For the same compound, the “TLK 236 RRT = 0.88” value [3, 10] was 3.45, the Total impurities [3, 10] was 5.1 and the “Individual Impurities RRT = 0.80” value [3, 8] was 0.41. For the same compound, the “Individual Impurities RRT = 0.81” value [3, 8] was 0.17, the “Individual Impurities RRT = 0.83” value [3, 8] was 0.16 and the “Individual Impurities RRT = 0.99” value ([3]; Initial) was 0.12. The “Assay (HPLC)” value ([3]; Initial, hydrochloride) was 93.7 % Label Claim, the “Individual Impurities RRT = 0.74” value ([3]; Initial, hydrochloride) was 0.38 and the “Individual Impurities RRT = 0.83” value ([3]; Initial, hydrochloride) was 0.34. For the same compound, the “Individual Impurities RRT = 0.96” value ([3]; Initial, hydrochloride) was 0.20, the “TLK 236 RRT = 0.88” value ([3]; Initial, hydrochloride) was 0.42 and the Total impurities ([3]; Initial, hydrochloride) was 1.5. For the same compound, the “Dissolution, Mean at 45 min” value [4, 7] was “Mean = 33 % of label claim”, the “Dissolution, Mean at 45 min” value [4, 9] was “Mean = 19 % of label claim” and the “Dissolution, Mean at 45 min” value ([4]; Initial) was “Mean = 46 % of label claim”. The “Water Content” value [5, 7] was 2.3%, the “Water Content” value [5, 9] was 2.3% and the “Water Content” value ([5]; Initial) was 3.5%. The “Assay (HPLC)” value [6] was 84.6 % Label Claim, the “Individual Impurities RRT = 0.59/0.62” value [6] was 0.15 and the “Individual Impurities RRT = 0.74” value [6] was 0.51. For the same compound, the “Individual Impurities RRT = 0.96” value [6] was 0.24, the “TLK 236 RRT = 0.88” value [6] was 4.66 and the Total impurities [6] was 6.3.
